# Data from ChEMBL document CHEMBL1201862, “PubChem BioAssay data set” (2004).
# Activity calls are given as the source filed them.
# Tests used:
# Wee1-like protein kinase = Wee1-like protein kinase (Homo sapiens, UniProt P30291); assay: Dose Response Cell-based Assay for Inhibitors of Wee1 Degradation. [Related pubchem assays: 1410, 1321 ]; format: functional
# [1] = molecular target: G2/mitotic-specific cyclin-B1 (Homo sapiens, UniProt P14635); assay: Counterscreen assay for inhibitors of Wee1 degradation: dose response cell-based assay to identify inhibitors of cyclin B degradation. [Related pubchem assays: 1410, 1321 ]; format: functional
# G2/mitotic-specific cyclin-B1, sequence (P14635 whole entry): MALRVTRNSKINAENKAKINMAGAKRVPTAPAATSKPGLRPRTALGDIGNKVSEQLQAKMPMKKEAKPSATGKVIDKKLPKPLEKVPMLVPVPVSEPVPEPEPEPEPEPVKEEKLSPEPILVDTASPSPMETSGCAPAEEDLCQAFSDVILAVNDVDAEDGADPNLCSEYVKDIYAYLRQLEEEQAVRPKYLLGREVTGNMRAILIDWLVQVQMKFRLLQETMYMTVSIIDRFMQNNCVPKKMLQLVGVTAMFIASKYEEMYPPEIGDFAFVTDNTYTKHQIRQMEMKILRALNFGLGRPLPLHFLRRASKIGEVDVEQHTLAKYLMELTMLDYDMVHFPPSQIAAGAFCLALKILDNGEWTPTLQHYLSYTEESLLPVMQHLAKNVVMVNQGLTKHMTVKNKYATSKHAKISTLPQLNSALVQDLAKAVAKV
# Cytochrome P450 2D6 = Cytochrome P450 2D6 (Homo sapiens, UniProt P10635); assay: qHTS Assay for Inhibitors and Substrates of Cytochrome P450 2D6. [Related pubchem assays: 410 ]; format: ADME; details: read-out: Potency
# Cytochrome P450 2D6, sequence (P10635 whole entry): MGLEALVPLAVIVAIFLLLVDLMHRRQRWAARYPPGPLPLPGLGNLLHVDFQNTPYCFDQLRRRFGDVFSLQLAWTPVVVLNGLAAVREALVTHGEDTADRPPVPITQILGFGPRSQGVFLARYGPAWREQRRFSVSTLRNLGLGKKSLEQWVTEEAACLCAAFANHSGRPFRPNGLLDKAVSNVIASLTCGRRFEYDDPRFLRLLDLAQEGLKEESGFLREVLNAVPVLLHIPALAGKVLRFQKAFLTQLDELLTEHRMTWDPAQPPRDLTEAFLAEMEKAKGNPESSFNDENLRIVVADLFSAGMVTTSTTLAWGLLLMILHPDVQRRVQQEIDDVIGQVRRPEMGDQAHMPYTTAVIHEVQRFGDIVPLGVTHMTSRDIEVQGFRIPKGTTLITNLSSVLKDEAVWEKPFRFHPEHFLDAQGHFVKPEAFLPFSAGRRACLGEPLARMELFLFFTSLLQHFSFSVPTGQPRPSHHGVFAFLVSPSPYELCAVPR
# [2] = Counterscreen for IDE inhibitors: Luminescence-based cell-based high throughput dose response assay to identify compounds that are cytotoxic to HEK cells. [Related pubchem assays: 434962 (Primary screen (IDE inhibitors in singlicate)), 449730 (Counterscreen (Cytotoxicity in triplicate)), 435028 (Confirmation (IDE inhibitors in triplicate)) …; format: functional; details: HEK293
# Insulin-degrading enzyme = molecular target: T1, Insulin-degrading enzyme (Homo sapiens, UniProt P14735); assay: Dose Response: Fluorescence polarization-based cell-based high throughput dose response assay for inhibitors of insulin-degrading enzyme (IDE). [Related pubchem assays: 434962 (Primary screen (IDE inhibitors in singlicate)), 449730 (Counterscreen (Cytotoxicity in triplicate)), 435028 (Confirmation (IDE inhibitors in triplicate)), 434984 (Summary …; format: functional
# T1 sequence (P14735 whole entry): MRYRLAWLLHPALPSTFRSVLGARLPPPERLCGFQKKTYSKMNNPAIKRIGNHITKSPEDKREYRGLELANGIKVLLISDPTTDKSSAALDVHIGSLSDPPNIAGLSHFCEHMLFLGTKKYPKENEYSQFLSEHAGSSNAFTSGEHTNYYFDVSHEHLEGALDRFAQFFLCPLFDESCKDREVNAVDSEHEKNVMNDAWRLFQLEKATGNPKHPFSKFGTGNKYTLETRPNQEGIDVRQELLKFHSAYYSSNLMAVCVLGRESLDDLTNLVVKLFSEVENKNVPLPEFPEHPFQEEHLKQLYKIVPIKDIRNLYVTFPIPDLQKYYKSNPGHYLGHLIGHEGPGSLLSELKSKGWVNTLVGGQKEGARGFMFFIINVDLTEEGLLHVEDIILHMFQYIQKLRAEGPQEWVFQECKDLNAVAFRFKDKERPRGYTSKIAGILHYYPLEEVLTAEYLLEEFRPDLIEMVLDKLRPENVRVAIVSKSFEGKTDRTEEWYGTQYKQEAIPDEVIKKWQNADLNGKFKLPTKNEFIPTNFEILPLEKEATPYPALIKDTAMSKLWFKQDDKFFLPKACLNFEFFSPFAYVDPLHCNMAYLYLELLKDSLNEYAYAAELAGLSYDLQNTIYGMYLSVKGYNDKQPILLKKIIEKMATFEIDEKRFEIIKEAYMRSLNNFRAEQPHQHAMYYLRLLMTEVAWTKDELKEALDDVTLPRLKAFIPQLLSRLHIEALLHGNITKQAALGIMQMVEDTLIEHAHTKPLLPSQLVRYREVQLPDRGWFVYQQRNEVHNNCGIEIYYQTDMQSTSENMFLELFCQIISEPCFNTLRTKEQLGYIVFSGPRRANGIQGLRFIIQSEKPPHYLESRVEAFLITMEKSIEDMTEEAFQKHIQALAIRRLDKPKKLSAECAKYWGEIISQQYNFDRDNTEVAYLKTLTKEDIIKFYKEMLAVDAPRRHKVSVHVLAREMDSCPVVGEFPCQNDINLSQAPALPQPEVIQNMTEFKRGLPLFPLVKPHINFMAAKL
# [3] = molecular target: Mothers against decapentaplegic homolog 3 (Homo sapiens, UniProt P84022); assay: blockers of Smad3 complex formation in lysate – cell lysate, secondary confirmation, chemiluminescent ELISA, HEK293 lysate, dose response (AID 1058); format: functional
# Mothers against decapentaplegic homolog 3, sequence (P84022 whole entry): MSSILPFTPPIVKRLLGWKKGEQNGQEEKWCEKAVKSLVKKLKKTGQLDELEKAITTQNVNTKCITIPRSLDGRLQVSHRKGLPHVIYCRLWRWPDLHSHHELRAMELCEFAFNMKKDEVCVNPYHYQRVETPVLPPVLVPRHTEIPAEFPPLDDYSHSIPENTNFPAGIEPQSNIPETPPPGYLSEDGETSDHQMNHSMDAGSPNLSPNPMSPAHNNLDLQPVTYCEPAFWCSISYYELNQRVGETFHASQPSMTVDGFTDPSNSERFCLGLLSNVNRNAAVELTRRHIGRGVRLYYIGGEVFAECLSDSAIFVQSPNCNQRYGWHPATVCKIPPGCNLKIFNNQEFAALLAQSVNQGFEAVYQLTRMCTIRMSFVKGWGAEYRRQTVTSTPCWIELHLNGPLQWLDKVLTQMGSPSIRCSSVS
# HT-1080 = assay: HT1080 cell viability loss – fluorescence readout (AID 620); format: functional, cell-based; details: Homo sapiens
# [4] = reduced cellular PGC1a acetyl-lysine signal – cell-based, cherry-picked samples, dose response (AID 720514); format: functional;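 further: potency may reflect raised or lowered acetylation signal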
# Protein RecA = molecular target: T2, Protein RecA (Mycobacterium tuberculosis, UniProt P9WHJ3); assay: Fluorescence Cell-Free Homogeneous Dose Retest to Identify Inhibitors of RecA-Intein Splicing Activity. [Related pubchem assays (depositor defined):AID2097, AID2223, AID489010, AID492950]; format: functional
# T2 sequence (P9WHJ3 whole entry): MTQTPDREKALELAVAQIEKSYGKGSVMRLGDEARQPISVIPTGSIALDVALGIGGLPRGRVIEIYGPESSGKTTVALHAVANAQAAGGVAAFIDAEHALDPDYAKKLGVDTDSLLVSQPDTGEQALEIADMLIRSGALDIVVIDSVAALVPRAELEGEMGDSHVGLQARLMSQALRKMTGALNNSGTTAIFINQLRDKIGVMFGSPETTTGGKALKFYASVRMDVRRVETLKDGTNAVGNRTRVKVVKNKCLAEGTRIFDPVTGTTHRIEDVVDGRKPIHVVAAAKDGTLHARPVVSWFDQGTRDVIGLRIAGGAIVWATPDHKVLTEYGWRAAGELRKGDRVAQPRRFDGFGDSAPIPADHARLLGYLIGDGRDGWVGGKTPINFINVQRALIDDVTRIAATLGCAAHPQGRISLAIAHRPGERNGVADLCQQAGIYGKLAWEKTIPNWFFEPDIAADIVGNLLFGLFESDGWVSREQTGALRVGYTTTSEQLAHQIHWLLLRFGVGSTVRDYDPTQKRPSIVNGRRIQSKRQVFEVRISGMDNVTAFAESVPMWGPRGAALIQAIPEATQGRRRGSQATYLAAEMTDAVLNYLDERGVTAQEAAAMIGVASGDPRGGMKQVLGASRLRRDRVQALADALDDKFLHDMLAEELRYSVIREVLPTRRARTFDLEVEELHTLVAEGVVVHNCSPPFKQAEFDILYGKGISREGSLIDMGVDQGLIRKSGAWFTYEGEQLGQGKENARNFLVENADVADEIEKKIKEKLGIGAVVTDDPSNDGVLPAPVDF
# [5] = Luminescence Cell-Based Dose Retest to Confirm Inhibitors of Cancer Stem Cells. [Related pubchem assays (depositor defined):AID2717, AID2721]; format: functional; details: Homo sapiens
# [6] = molecular target: Luciferin 4-monooxygenase (Photinus pyralis, UniProt P08659); assay: Counter Screen for Luciferase-based Assay Positives. [Related pubchem assays: 620, 618, 411 ]
# Luciferin 4-monooxygenase, sequence (P08659 whole entry): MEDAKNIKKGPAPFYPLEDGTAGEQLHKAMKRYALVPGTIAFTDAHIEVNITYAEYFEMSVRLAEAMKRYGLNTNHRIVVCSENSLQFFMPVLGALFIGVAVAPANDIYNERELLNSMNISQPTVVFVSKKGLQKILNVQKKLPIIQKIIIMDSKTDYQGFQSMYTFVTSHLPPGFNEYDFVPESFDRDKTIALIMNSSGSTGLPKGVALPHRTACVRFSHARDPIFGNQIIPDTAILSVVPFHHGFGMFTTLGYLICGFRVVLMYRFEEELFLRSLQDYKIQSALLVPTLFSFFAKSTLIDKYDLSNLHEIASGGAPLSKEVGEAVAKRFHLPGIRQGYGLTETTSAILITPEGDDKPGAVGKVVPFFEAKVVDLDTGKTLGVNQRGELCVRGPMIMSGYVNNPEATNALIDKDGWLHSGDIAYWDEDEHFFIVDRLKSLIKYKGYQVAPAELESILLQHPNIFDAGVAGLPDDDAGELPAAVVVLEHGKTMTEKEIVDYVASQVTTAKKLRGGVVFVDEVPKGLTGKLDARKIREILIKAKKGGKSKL
# [7] = molecular target: T3, Replicative DNA helicase DnaB (Mycobacterium tuberculosis, UniProt P9WMR3); assay: DnaB intein splicing inhibitors, dose response, biochemical, cell-free fluorescence (AID 449749); format: functional
# T3 sequence (P9WMR3 whole entry): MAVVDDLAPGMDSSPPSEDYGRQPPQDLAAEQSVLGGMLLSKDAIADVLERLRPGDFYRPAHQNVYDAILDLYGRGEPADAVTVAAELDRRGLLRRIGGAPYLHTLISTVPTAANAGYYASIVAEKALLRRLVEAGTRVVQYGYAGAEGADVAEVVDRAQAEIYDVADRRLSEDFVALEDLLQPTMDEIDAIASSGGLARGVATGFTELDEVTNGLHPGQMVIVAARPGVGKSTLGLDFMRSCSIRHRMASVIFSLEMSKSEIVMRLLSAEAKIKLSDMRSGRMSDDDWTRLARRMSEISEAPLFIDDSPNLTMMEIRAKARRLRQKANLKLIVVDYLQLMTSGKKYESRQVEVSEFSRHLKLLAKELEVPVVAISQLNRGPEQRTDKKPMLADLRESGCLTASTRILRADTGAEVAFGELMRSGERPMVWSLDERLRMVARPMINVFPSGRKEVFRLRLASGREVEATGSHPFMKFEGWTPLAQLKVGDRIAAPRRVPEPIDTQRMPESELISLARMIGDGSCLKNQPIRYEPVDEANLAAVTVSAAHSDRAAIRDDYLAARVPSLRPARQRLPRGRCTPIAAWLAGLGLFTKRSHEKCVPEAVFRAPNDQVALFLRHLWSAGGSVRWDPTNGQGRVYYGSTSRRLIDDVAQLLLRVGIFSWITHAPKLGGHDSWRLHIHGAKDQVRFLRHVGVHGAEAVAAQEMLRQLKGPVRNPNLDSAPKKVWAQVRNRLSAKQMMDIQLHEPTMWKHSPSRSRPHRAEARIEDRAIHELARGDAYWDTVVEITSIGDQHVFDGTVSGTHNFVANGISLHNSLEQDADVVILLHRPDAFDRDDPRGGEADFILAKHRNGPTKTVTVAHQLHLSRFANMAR
# [8] = molecular target: T4, Alkaline phosphatase, tissue-nonspecific isozyme (Homo sapiens, UniProt P05186)
# T4 sequence (P05186 whole entry): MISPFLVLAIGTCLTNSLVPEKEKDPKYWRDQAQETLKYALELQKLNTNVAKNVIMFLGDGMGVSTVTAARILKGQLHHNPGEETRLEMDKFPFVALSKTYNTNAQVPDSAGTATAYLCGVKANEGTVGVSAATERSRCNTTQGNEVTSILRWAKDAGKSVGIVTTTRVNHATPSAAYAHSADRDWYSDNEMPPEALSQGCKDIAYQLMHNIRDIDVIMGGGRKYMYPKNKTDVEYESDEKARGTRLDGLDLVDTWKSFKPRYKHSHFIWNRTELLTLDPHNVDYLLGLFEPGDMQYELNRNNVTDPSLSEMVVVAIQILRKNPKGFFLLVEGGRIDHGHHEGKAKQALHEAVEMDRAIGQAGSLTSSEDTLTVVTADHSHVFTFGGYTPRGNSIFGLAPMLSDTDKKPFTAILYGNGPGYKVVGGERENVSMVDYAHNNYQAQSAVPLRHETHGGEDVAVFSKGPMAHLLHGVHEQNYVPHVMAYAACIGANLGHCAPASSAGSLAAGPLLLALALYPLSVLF
# Estrogen receptor = molecular target: T5, Estrogen receptor (Homo sapiens, UniProt P03372);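 further: potency for inhibiting coactivator peptide recruitment to the receptor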
# T5 sequence (P03372 whole entry): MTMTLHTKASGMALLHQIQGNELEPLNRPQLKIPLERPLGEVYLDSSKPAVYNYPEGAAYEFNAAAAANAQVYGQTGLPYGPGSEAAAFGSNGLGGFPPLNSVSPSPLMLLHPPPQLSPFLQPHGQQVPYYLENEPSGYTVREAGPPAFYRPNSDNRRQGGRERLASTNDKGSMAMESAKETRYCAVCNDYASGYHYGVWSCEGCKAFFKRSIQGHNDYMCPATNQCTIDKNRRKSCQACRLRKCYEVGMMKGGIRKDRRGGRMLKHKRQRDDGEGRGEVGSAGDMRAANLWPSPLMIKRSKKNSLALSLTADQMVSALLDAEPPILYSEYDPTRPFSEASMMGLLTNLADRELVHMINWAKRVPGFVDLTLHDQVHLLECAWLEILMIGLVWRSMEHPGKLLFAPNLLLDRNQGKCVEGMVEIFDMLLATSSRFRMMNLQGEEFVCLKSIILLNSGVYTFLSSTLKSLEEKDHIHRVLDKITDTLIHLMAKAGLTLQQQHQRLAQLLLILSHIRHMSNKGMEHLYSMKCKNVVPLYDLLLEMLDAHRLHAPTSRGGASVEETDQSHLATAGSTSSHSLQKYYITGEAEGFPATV
# [9] = molecular target: T6, Heat shock 70 kDa protein 1A (Homo sapiens, UniProt P0DMV8); assay: small molecules displacing fluorescent ligand from Hsp70 – biochemical, fluorescence polarization, primary screen (AID 583)
# T6 sequence (P0DMV8 whole entry): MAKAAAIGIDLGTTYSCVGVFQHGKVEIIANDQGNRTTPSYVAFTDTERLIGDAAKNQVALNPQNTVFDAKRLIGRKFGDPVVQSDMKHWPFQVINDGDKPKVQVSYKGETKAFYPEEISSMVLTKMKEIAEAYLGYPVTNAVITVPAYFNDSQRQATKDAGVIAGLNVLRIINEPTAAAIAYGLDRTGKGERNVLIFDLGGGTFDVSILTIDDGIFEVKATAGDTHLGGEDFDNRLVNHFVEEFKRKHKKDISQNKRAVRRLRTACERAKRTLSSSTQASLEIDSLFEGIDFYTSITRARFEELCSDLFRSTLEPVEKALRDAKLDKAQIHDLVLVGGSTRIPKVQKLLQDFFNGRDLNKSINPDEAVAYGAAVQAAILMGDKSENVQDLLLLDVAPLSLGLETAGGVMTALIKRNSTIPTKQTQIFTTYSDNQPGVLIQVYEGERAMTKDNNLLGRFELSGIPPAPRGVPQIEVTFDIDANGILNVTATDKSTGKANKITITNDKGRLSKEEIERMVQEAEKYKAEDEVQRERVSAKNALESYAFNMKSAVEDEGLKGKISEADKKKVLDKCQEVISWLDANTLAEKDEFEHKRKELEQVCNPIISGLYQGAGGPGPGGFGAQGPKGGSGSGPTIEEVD
# Estrogen receptor beta = Estrogen receptor beta (Homo sapiens, UniProt Q92731);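 further: recombinant ER-beta bound to coactivator SRC1 peptide in presence of estradiol agonist; inhibitors block coactivator peptide binding and lower the FRET signal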
# Estrogen receptor beta, sequence (Q92731 whole entry): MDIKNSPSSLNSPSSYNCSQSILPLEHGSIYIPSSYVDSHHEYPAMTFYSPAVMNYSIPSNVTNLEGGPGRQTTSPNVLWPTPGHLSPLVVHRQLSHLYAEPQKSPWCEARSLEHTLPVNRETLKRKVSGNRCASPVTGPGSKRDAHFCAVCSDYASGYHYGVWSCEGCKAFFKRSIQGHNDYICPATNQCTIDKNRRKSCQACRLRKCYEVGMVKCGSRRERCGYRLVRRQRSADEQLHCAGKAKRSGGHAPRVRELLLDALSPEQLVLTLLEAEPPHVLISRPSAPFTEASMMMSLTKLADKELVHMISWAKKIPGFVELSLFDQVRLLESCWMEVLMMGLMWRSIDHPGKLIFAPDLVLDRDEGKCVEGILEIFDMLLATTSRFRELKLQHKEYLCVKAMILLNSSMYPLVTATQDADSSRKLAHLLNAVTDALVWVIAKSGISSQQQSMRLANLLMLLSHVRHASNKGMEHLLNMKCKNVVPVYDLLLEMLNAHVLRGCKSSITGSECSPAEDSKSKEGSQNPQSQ
# [10] = molecular target: T6, Heat shock 70 kDa protein 1A; assay: small-molecule inhibition of Hsp70 – biochemical, TR-FRET (AID 786)
# Bcl-2-like protein 10 = Bcl-2-like protein 10 (Homo sapiens, UniProt Q9HD36); assay: Concentration-response of Bcl-B inhibitors by biochemical FP with TR3 (AID 1243); format: functional
# Bcl-2-like protein 10, sequence (Q9HD36 whole entry, the tested form may be a part): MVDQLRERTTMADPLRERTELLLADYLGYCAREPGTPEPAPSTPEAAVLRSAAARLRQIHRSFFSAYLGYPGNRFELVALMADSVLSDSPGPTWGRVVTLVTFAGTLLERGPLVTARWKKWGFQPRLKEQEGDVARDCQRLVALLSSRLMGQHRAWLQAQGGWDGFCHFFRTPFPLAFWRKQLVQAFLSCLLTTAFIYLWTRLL
# [11] = CCR5-tropic HIV-1 fusion blockers – cell-based, CCR5-tropic Env, dose response (AID 2279); format: functional
# [12] = molecular target: Heat shock protein HSP 90-alpha (Homo sapiens, UniProt P07900); assay: Luminescence-based dose response biochemical high throughput screening assay for inhibitors of the Heat Shock Protein 90 (HSP90). [Related pubchem assays: 1831 (Summary AID.), 1846 (Confirmation screen.), 1789 (Primary screen.)]
# Wee1-like protein kinase, sequence (P30291 whole entry): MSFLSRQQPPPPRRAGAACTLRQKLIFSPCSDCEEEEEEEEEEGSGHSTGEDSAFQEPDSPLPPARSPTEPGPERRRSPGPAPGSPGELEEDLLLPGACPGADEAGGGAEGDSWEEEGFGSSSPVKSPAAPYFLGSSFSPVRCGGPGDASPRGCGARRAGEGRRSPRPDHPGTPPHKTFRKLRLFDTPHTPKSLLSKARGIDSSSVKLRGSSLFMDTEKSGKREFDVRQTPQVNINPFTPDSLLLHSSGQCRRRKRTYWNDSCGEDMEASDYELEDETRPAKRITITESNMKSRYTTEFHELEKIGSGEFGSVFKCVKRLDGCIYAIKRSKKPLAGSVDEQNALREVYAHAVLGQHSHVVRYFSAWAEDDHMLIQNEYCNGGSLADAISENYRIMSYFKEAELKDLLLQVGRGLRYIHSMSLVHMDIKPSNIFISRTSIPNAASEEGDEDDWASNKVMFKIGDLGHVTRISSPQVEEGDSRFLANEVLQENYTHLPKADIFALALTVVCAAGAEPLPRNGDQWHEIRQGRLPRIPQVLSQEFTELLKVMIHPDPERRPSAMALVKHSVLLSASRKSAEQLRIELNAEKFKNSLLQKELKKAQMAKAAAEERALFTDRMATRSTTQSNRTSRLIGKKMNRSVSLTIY
structure (smiles),measurement,setting,value
O=C(/C=C/c1ccccc1)Nc1ccc(Cl)cn1,EC50,Wee1-like protein kinase,> 49.7 µM (not active)
same,EC50,[1],> 49.7 µM (not active)
CC1(O)C(=O)C=C2C=C3CCCN3C=C2C1=O (stereo not given),AC50,Cytochrome P450 2D6,7.94 µM (inconclusive)
O=C(Nc1cccc(C(F)(F)F)c1)c1csc(-c2ccncc2)n1,IC50,[2],21.2 µM (not active)
same,IC50,Insulin-degrading enzyme,5.34 µM (active)
Oc1cc2c(cc1C(c1ccc3c(c1)OCO3)N1CCN(C(c3ccc4c(c3)OCO4)c3cc4c(cc3O)OCO4)CC1)OCO2 (stereo not given),IC50,[3],14.1 µM (not active)
CCCCOc1ccc(C(=O)C(CN2CCOCC2)c2ccccc2)cc1 (stereo not given),EC50,HT-1080,30 µM (active)
same,AC50,[4],4.4 µM (active)
same,EC50,Protein RecA,26.7 µM (inconclusive)
same,AC50,[5],5.12 µM (active)
same,EC50,[6],3.7 µM (active)
same,AC50,[7],12.6 µM (active)
CCC(C)C(NC(=O)c1ccccc1NC(=O)c1ccco1)C(=O)NC1CCCCC1 (stereo not given),EC50,[8],> 100 µM (not active)
NC(=O)COc1ccc(C2c3c(oc4ccccc4c3=O)C(=O)N2CC2CCCO2)cc1 (stereo not given),IC50,Estrogen receptor,> 50 µM (not active)
same,IC50,[9],55.1 µM (active)
same,IC50,Estrogen receptor beta,> 50 µM (not active)
same,IC50,[10],16 µM (active)
O=S(=O)(O)c1cccc2cccc(Nc3ccccc3)c12,EC50,Bcl-2-like protein 10,2.95 µM (active)
COc1cc(/C=N/Nc2ccc(Cl)c(C(=O)O)c2)ccc1OC(=O)c1ccc(F)cc1,IC50,[11],4.76 µM (active)
same,IC50,[12],0.874 µM (active)
